From patent publication US20110230472A1, “RING-FUSED AZOLE DERIVATIVE HAVING PI3K-INHIBITING ACTIVITY” (Shionogi & Co., Ltd., priority 2008, published 2011)

What was measured:
[1] = Solubility test; type: physicochemical; conditions: kinetic from dmso stock; artificial intestinal juice pH 6.8, 1% DMSO, 25° C. for 16 hours
Description: The solubility of a compound was determined under a condition in which 1% DMSO was added. 10 mmol/L compound solution was prepared using DMSO, and then 6 μL of the compound solution was added to 594 μL of artificial intestinal juice in pH 6.8 (to 250 mL of 0.2 mol/L potassium dihydrogen phosphate reagent solution was added 118 mL of 0.2 mol/L NaOH reagent solution and water to provide a final volume of 1000 mL). After standing at 25° C. for 16 hours, the mixed solution was filtered with suction. The filtrate was diluted twice with methanol/water (1/1), and then a concentration in the filtration was measured with HPLC or LC/MS/MS by the absolute calibration method.

[2] = biological target: PI-3 kinase γ (Homo sapiens, UniProt P48736); experiment: PI3Kγ inhibitory activity, PI3-kinase HTRF assay (inhibition ratio); type: biochemical; conditions: 0.5 h; for inhibition at 50 µM: compound at 50 μM
How it was run: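 Single-concentration inhibition ratio (50 or 10 μmol/L compound) versus no-compound (100%) and no-enzyme (0%) wells. Reaction: PI-3 kinase γ, PIP2, ATP, MgCl2/DTT, 30 min at RT after 10 min preincubation. Read-out: HTRF 665/620 nm after 18 h detection.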

[3] = biological target: T1, CYP2D6 (Homo sapiens, UniProt P10635); experiment: CYP inhibition test, pooled human liver microsome, CYP2D6; type: in vitro ADME; conditions: O-demethylation of dextromethorphan
T1 construct: enzyme: pooled human liver microsome 0.2 mg protein/mL; from tissue; host or cells: pooled human liver microsome
From the text: (§1) O-de-ethylation of 7-ethoxyresorufin (CYP1A2), methyl-hydroxylation of tolbutamide (CYP2C9), 4′-hydroxylation of mephenyloin (CYP2C19), O-demethylation of dextromethorphan (CYP2D6), and hydroxylation of terfenadine (CYP3A4), which are typical substrate for metabolic reactions of human main CYP5 molecular species (CYP1A2, 2C9, 2C19, 2D6, and 3A4), were adopted as indexes.
(§2) The reaction conditions are as follows: substrate: 0.5 μmol/L of ethoxyresorufin (CYP1A2), 100 μmol/L of tolbutamide (CYP2C9), […] of S-mephenyloin (CYP2C19), 5 μmol/L of dextromethorphan (CYP2D6), and 1 μmol/L of terfenadine (CYP3A4); reaction time; 15 minutes; reaction temperature: 37° C.; enzyme: pooled human liver microsome 0.2 mg protein/mL; test drug concentration: 1, 5, 10, and 20 μmol/L (4 points).
(§3) In a 96-well plate, as a reaction solution, five kinds of substrates, a human liver microsome, and a test drug were added to 50 mmol/L Hepes buffer solution in the aforementioned ratio. A coenzyme NADPH was added to start a metabolic reaction, which is an index. After reacting at 37° C. for 15 minutes, a solution of methanol/acetonitrile (1/1 (v/v)) was added to quench the reaction. After centrifugation at 3000 rpm for 15 minutes, resorufin (CYP1A2 metabolite) in the supernatant was quantitated with a fluorescence multilabel counter, and hydroxylated tolbutamide (CYP2C9 metabolite), 4′-hydroxylated mephenyloin (CYP2C19 metabolite), […], terfenadine in alcohol form (CYP3A4 metabolite) were quantitated with LC/MS/MS.
(§4) The case wherein only DMSO (a solvent which dissolved a drug) was added to a reaction system was defined as a control (100%). When a test drug solution was added, the remaining activity (%) at each concentration was calculated, and then IC50 was calculated with a concentration and an inhibition ratio by an inverse estimation using a logistic model.

[4] = biological target: T2, CYP2C9 (Homo sapiens, UniProt P11712); experiment: CYP inhibition test, pooled human liver microsome, CYP2C9; type: in vitro ADME; conditions: methyl-hydroxylation of tolbutamide
T2 construct: enzyme: pooled human liver microsome 0.2 mg protein/mL; from tissue; host or cells: pooled human liver microsome
From the text: as §1, §2, §3, §4

[5] = biological target: T3, CYP1A2 (Homo sapiens, UniProt P05177); experiment: CYP inhibition test, pooled human liver microsome, CYP1A2; type: in vitro ADME; conditions: O-de-ethylation of 7-ethoxyresorufin
T3 construct: enzyme: pooled human liver microsome 0.2 mg protein/mL; from tissue; host or cells: pooled human liver microsome
T3 sequence (P05177 1-516): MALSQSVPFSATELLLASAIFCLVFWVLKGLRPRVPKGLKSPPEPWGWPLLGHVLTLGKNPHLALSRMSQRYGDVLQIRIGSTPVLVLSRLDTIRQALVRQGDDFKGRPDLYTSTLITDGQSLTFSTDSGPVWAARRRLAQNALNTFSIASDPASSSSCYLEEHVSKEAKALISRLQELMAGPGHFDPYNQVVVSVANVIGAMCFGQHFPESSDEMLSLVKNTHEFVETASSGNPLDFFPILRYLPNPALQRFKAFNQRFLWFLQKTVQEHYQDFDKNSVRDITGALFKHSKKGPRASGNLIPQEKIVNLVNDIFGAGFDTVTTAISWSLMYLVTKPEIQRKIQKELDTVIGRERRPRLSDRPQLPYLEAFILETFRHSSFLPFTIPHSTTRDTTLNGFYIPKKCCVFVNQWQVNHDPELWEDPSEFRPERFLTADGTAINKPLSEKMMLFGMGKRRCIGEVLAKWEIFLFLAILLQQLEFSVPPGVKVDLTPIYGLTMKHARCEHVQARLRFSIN
From the text: as §1, §2, §3, §4

[6] = biological target: T4, CYP3A4 (Homo sapiens, UniProt P08684); experiment: CYP inhibition test, pooled human liver microsome, CYP3A4; type: in vitro ADME; conditions: hydroxylation of terfenadine
T4 construct: enzyme: pooled human liver microsome 0.2 mg protein/mL; from tissue; host or cells: pooled human liver microsome
From the text: as §1, §2, §3, §4

[7] = biological target: T5, CYP2C19 (Homo sapiens, UniProt P33261); experiment: CYP inhibition test, pooled human liver microsome, CYP2C19; type: in vitro ADME; conditions: 4′-hydroxylation of mephenyloin
T5 construct: enzyme: pooled human liver microsome 0.2 mg protein/mL; from tissue; host or cells: pooled human liver microsome
From the text: as §1, §2, §3, §4

[8] = Metabolic stability test; type: in vitro ADME; conditions: human liver microsome 0.5 mg protein/mL, 1 mmol/L NADPH, 37° C.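 Note: 100% equals the compound amount at 0 min reaction.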
Description: After a subject compound was reacted for a certain time using a pooled human liver microsome commercially available, a reacted sample and an unreacted sample are compared to calculate a survival ratio, and then the degree of metabolism in the liver was evaluated.
0.2 mL of a buffer solution (50 mmol/L of Tris-HCl in pH 7.4, 150 mmol/L of potassium chloride, and 10 mmol/L of magnesium chloride) containing a human liver microsome of 0.5 mg protein/mL was reacted in the presence of 1 mmol/L NADPH at 37° C. for 0 or 30 minutes (oxidative reaction). After reacting, 50 μL of the reaction solution was added to 100 μL of a solution of methanol/acetonitrile (1/1 (v/v)), mixed, and then centrifuged at 3000 rpm for 15 minutes. The test compound in the supernatant was quantitated with LC/MS/MS. The amount of the compound at a reaction time of 0 minute was defined as 100% and, based on that, the percentage of the test compound remained after reacting for 30 minutes was calculated.

T2 sequence (P11712 whole entry): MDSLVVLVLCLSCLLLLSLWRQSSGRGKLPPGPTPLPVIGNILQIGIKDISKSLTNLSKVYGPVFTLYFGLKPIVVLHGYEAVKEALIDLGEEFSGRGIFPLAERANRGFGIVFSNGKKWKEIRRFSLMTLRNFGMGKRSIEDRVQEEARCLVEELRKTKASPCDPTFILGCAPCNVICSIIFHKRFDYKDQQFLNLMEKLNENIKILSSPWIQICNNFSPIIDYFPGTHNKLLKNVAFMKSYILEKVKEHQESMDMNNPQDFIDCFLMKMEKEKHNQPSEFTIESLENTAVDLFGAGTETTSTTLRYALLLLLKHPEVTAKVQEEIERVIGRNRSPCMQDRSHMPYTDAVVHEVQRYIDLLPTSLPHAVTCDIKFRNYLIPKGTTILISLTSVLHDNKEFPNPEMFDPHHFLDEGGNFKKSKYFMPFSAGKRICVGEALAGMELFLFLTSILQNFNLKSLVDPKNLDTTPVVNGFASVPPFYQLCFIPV
T1 sequence (P10635 whole entry): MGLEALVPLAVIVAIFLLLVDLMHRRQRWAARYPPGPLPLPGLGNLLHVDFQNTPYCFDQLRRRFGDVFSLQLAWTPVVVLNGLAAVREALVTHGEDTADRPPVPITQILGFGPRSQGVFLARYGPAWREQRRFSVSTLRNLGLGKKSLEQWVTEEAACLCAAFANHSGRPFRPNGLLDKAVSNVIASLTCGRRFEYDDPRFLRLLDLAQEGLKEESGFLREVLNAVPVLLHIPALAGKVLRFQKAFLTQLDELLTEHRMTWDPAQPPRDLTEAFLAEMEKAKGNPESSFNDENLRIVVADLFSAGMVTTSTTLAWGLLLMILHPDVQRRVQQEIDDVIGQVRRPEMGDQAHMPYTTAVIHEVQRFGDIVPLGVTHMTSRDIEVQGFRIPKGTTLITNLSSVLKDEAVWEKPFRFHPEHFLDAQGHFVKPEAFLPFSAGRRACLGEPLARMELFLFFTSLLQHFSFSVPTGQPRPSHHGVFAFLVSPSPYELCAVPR
T5 sequence (P33261 whole entry): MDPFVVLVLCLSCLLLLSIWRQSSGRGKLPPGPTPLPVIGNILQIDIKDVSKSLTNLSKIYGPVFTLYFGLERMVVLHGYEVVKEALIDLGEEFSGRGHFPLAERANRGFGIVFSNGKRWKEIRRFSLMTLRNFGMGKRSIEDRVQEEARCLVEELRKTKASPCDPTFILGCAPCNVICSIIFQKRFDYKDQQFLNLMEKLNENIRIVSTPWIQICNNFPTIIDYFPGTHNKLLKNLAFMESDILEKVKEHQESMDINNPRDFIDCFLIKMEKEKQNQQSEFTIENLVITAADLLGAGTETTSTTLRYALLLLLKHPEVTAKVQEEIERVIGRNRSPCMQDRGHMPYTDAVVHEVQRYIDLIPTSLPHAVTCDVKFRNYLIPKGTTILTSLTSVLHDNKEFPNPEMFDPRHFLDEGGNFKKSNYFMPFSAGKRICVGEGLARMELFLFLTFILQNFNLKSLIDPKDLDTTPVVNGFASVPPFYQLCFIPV
Sequence of PI-3 kinase γ (P48736 whole entry): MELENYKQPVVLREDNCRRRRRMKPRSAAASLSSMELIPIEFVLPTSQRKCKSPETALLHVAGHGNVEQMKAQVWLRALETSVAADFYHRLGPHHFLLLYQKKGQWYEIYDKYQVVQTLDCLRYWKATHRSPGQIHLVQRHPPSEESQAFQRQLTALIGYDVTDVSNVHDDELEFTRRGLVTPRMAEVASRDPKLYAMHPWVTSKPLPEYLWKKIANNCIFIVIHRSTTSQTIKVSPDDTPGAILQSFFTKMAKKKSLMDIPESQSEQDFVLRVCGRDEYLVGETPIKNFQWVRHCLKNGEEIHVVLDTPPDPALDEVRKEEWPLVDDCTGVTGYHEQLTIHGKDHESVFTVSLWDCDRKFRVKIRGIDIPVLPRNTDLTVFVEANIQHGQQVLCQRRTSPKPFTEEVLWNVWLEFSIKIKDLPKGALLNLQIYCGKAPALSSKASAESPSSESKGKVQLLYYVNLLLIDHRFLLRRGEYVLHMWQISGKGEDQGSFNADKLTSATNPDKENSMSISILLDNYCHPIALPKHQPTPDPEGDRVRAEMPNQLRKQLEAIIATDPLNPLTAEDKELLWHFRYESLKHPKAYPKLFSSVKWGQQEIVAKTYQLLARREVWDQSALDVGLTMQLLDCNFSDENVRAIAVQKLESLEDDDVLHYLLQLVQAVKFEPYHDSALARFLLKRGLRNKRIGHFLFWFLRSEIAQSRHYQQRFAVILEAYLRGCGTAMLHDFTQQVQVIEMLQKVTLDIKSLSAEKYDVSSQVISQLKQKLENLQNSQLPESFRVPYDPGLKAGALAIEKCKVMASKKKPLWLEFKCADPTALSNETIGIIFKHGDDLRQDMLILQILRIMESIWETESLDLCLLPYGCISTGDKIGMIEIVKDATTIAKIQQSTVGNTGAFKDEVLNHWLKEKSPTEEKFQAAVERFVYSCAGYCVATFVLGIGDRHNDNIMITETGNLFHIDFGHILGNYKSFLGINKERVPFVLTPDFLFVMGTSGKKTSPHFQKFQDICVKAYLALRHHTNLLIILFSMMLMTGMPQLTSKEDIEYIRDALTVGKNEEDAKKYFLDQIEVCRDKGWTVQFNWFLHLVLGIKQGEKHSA
T4 sequence (P08684 whole entry): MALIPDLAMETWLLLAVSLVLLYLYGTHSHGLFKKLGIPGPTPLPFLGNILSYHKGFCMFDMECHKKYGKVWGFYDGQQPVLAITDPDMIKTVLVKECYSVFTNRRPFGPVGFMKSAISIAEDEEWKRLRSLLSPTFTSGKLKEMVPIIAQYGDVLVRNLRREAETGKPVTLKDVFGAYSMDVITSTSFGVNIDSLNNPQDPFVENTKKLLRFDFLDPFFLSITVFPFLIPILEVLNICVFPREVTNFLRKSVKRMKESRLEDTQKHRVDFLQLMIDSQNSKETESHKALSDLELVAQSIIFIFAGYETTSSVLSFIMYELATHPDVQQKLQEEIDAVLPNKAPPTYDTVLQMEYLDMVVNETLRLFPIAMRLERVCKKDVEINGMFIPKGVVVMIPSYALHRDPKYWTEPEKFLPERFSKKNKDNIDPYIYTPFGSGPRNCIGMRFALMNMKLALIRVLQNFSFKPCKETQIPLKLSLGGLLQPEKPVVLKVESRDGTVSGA

Compound	solubility at 16 h [1] [µM]	inhibition at 50 µM ([2]; PI3Kγ) [%]	IC50 [3] [µM]	IC50 [4] [µM]	IC50 [5] [µM]	IC50 [6] [µM]	IC50 [7] [µM]	percentage of the test compound remained after reacting for 30 minutes [8] [%]	inhibition at 10 µM ([2]; PI3Kγ, compound at 10 μM) [%]	inhibition at 10 µM ([2]; compound at 10 μmol/L) [%]
CNC(=O)Nc1cc2n(n1)CCN2c1ccc(C(=O)O)s1 [Compound I-217]	> 50	≥ 95	> 20	> 20	> 20	> 20	> 20			
CN(C)C(=O)CCC(=O)Nc1cc2n(n1)CCN2c1cccc(Cl)c1 [Compound I-234]		≥ 95	> 20	> 20	> 20	> 20	> 20	98.3		
CC(=O)Nc1cc2n(n1)CCN2c1ccc2c(c1)CCCN2.Cl.Cl [Compound I-319]	> 50									≥ 95
CC(=O)Nc1cc2n(n1)CCN2c1ccc2c(c1)CCC(=O)N2C [Compound I-340]	> 50		> 20	> 20	> 20	> 20	> 20	98.3		≥ 95
CN1CCc2cc(N3CCn4nc(NC(=O)CC5CCNC5)cc43)ccc2C1=O.Cl.Cl (stereo not drawn) [Compound I-356]	> 50		> 20	> 20	> 20	> 20	> 20			≥ 95
CN1CCc2cc(N3CCn4nc(NC(=O)c5cc(O)no5)cc43)ccc2C1=O [Compound I-397]	> 50		> 20	> 20	> 20	> 20	> 20	96.7		≥ 95
CN1CCc2cc(N3CCn4nc(NC(=O)c5ccc(C(=O)NCC#N)s5)cc43)ccc2C1=O [Compound I-409]			> 20	> 20	> 20	> 20	> 20	92.2		≥ 95
CN(C)C(=O)c1cc(C(=O)Nc2cc3n(n2)CCN3c2ccc3c(c2)CCN(C)C3=O)cs1 [Compound I-432]			> 20	> 20	> 20	> 20	> 20			≥ 95
COc1nc(Cl)cc(N2CCc3nc(NC(=O)NCCC(=O)NC(C)C)sc3C2)n1 [Compound I-554]										88

Results, then the compound that gave them:

solubility at 16 h [1] [µM]	inhibition at 50 µM ([2]; PI3Kγ) [%]	IC50 [3] [µM]	IC50 [4] [µM]	IC50 [5] [µM]	IC50 [6] [µM]	IC50 [7] [µM]	percentage of the test compound remained after reacting for 30 minutes [8] [%]	inhibition at 10 µM ([2]; PI3Kγ, compound at 10 μM) [%]	inhibition at 10 µM ([2]; compound at 10 μmol/L) [%]	Compound
> 50	≥ 95									CNC(=O)Nc1cc2n(n1)CCN2c1cccc(OC)c1 [Compound I-61]
> 50	94	> 20	> 20	> 20	> 20	> 20	98.9			CNC(=O)Nc1cc2n(n1)CCN2c1cc(Br)cc(C(=O)Nc2cccc(C(=O)O)c2)c1 [Compound I-187]
> 50		> 20	> 20	> 20	> 20	> 20	90.1	≥ 95		COc1cc(N2CCc3nc(NC(=O)NCCC(=O)N4CCC[C@H]4C(=O)O)sc3C2)nc(OC)n1 [Compound I-276]
> 50		> 20	> 20	> 20	> 20	> 20	99		83	COc1nc(OC)nc(N2CCc3nc(NC(C)=O)sc3C2)n1 [Compound I-330]
		> 20	> 20	> 20	> 20	> 20			91	CC(C)NC(=O)c1csc(C(=O)Nc2cc3n(n2)CCN3c2ccc3c(c2)CCN(C)C3=O)c1 [Compound I-402]
		> 20	> 20	> 20	> 20	> 20	92.9		≥ 95	CC(C)NC(=O)c1ccc(C(=O)Nc2cc3n(n2)CCN3c2ccc3c(c2)CCN(C)C3=O)s1 [Compound I-407]
									88	COc1cc(N2CCc3nc(NC(=O)C4CCCCC4)sc3C2)nc(OC)n1 [Compound I-552]
